{"source": "patent US20110015080A1", "about": "“Solution-based methods for RNA expression profiling” (MASSACHUSETTS INSTITUTE OF TECHNOLOGY, priority 2005, published 2011)", "test_system": "HL60 (human promyelocytic leukemia) cells", "test": "LMA-FlexMAP bead-based gene expression signature analysis of total RNA from HL60 cells treated with tretinoin or DMSO (ninety transcripts); on FlexMap signal, transcript NM 000875 (LUA#55): test concentration or dose not given here", "key": {"[1]": {"details": "Experiment 2, HL60 cells, Tretinoin-treated, replicate columns"}, "[2]": {"details": "Table 6B Experiment 1, tretinoin-treated HL60 samples, one column per replicate"}}, "note": "Several values for one entry are separate records, joined by “and”; a condition that tells them apart may be missing. Equal entries are not always repeated."}
{"smiles": "CC1=C(/C=C/C(C)=C/C=C/C(C)=C/C(=O)O)C(C)(C)CCC1", "note": "[tretinoin, all-trans-retinoic acid]", "values": [{"measurement": "FlexMap signal, transcript NM_000698 (LUA#14)", "setting": "[1]", "result": "1787 and 1685 and 64.5 and 1902 and 539 and 1934.5 and 1914.5 and 1773 and 1769 and 1871.5"}, {"measurement": "FlexMap signal, transcript NM_000875 (LUA#55)", "setting": "[1]", "result": "89 and 104 and 28.5 and 81 and 36 and 79 and 80 and 85 and 90 and 87.5"}, {"measurement": "FlexMap signal, transcript NM_000962 (LUA#7)", "setting": "[1]", "result": "873 and 822.5 and 65 and 900 and 253 and 845 and 904.5 and 846 (2×) and 930"}, {"measurement": "FlexMap signal, transcript NM_001974 (LUA#11)", "setting": "[1]", "result": "494 and 340.5 and 30 and 516.5 and 92.5 and 533 and 515 and 493 and 470 and 539"}, {"measurement": "FlexMap signal, transcript NM_002358 (LUA#53)", "setting": "[1]", "result": "109 (2×) and 94 and 33.5 and 103 (2×) and 39 and 96 and 97 and 119"}, {"measurement": "FlexMap signal, transcript NM_003825 (LUA#8)", "setting": "[1]", "result": "721 and 689.5 and 102 and 772 and 220 and 800 and 733 and 738 and 727 and 764"}, {"measurement": "FlexMap signal, transcript NM_004514 (LUA#46)", "setting": "[1]", "result": "399 and 424.5 and 25 and 469 and 99 and 428 and 445 and 422 and 420.5 and 460"}, {"measurement": "FlexMap signal, transcript NM_004631 (LUA#52)", "setting": "[1]", "result": "399 (2×) and 397 and 38.5 and 391 and 97 and 396 and 399.5 and 401.5 and 424"}, {"measurement": "FlexMap signal, transcript NM_004782 (LUA#4)", "setting": "[1]", "result": "1036.5 and 932 and 45 and 979.5 and 253 and 1005 and 1030 and 914 and 929 and 1044"}, {"measurement": "FlexMap signal, transcript NM_005736 (LUA#1)", "setting": "[1]", "result": "384.5 and 298.5 and 36.5 and 390 and 90.5 and 408 and 411 and 385 and 392 and 414.5"}, {"measurement": "FlexMap signal, transcript NM_006457 (LUA#13)", "setting": "[1]", "result": "131 (2×) and 121 and 43 and 115.5 (2×) and 65 and 118 and 120 and 117"}, {"measurement": "FlexMap signal, transcript NM_006773 (LUA#47)", "setting": "[1]", "result": "284 and 354.5 and 28 and 270 and 68 and 273 and 283 and 272 and 279 and 305"}, {"measurement": "FlexMap signal, transcript NM_006948 (LUA#51)", "setting": "[1]", "result": "980 and 887 and 51 and 974 and 248 and 1014 and 1006 and 963.5 and 958.5 and 1024.5"}, {"measurement": "FlexMap signal, transcript NM_007331 (LUA#50)", "setting": "[1]", "result": "102 and 115 (2×) and 24 and 47 and 95.5 and 96 and 97.5 and 94.5 and 111.5"}, {"measurement": "FlexMap signal, transcript NM_013402 (LUA#54)", "setting": "[1]", "result": "89 and 83 and 30 and 82 and 46 and 90.5 and 95.5 and 85 and 84.5 and 97"}, {"measurement": "FlexMap signal, transcript NM_014288 (LUA#48)", "setting": "[1]", "result": "63.5 and 55 and 22 and 52 and 33 and 60 and 57 (3×) and 65"}, {"measurement": "FlexMap signal, transcript NM_014962 (LUA#5)", "setting": "[1]", "result": "691 and 618 and 39 and 595.5 and 160 and 670.5 and 705 and 677.5 and 678 and 710"}, {"measurement": "FlexMap signal, transcript NM_016061 (LUA#9)", "setting": "[1]", "result": "450 and 440 and 48 and 458 and 121 and 470.5 and 464 and 468 and 459 and 503.5"}, {"measurement": "FlexMap signal, transcript NM_017440 (LUA#49)", "setting": "[1]", "result": "91 and 29 and 88 and 42 and 78 and 97 and 87.5 and 84 and 86.5"}, {"measurement": "FlexMap signal, transcript NM_018217 (LUA#3)", "setting": "[1]", "result": "980 and 922 and 48 and 935 and 258 and 992 and 1053.5 and 947 and 966 and 1022.5"}, {"measurement": "FlexMap signal, transcript NM_032571 (LUA#15)", "setting": "[1]", "result": "228 (2×) and 244 (2×) and 22.5 and 58.5 and 234 and 208 and 205 and 239"}, {"measurement": "FlexMap signal, transcript NM_173823 (LUA#6)", "setting": "[1]", "result": "760 and 592 and 36 and 736 and 182.5 and 758 and 734.5 and 658.5 and 681 and 816"}, {"measurement": "FlexMap signal of transcript NM_014288 (LUA#48)", "setting": "Experiment 3, tretinoin-treated samples, one column per sample", "result": "45 and 48 and 30 and 25 and 30.5 and 39 and 43 and 33"}, {"measurement": "NM_000070 (FlexMap ID LUA#2) signal", "setting": "[2]", "result": "329.5 and 386 and 269.5 and 370 and 104.5 and 354 and 372 and 159 and 336 and 318"}, {"measurement": "NM_000153 (FlexMap ID LUA#10) signal", "setting": "[2]", "result": "357.5 and 432 and 324 and 419.5 and 120 and 384 and 408 and 170 and 374 and 377.5"}, {"measurement": "NM_000632 (FlexMap ID LUA#12) signal", "setting": "[2]", "result": "323.5 and 222 and 292 and 78 and 307 and 277 and 114 and 275.5 and 251"}, {"measurement": "NM_000698 (FlexMap ID LUA#14) signal", "setting": "[2]", "result": "1562 and 1779 and 1332.5 and 1743 and 503 and 1688 and 1686.5 and 787 and 1606 and 1552.5"}, {"measurement": "NM_000875 (FlexMap ID LUA#55) signal", "setting": "[2]", "result": "63 and 68 and 53 and 62 (2×) and 36 and 65 and 48 and 74 and 54"}, {"measurement": "NM_000962 (FlexMap ID LUA#7) signal", "setting": "[2]", "result": "754 and 894 and 663 and 823 and 294 and 793.5 and 807 and 398 and 772 and 764"}, {"measurement": "NM_001974 (FlexMap ID LUA#11) signal", "setting": "[2]", "result": "403 and 466 and 288 and 435.5 and 95 and 414 and 430 and 141 and 420.5 and 396"}, {"measurement": "NM_002358 (FlexMap ID LUA#53) signal", "setting": "[2]", "result": "99 (2×) and 113 and 72 and 98 (2×) and 53 and 96 and 58 and 85"}, {"measurement": "NM_003825 (FlexMap ID LUA#8) signal", "setting": "[2]", "result": "557 and 658 and 476.5 and 630.5 and 256 and 580 and 609 and 318 and 584 and 550"}, {"measurement": "NM_004514 (FlexMap ID LUA#46) signal", "setting": "[2]", "result": "312.5 and 356 and 262 and 320 and 96 and 306 and 313 and 144.5 and 302 and 286"}, {"measurement": "NM_004631 (FlexMap ID LUA#52) signal", "setting": "[2]", "result": "304 and 352 and 238 and 334 and 103 and 331 and 310.5 and 135.5 and 326 and 289.5"}, {"measurement": "NM_004782 (FlexMap ID LUA#4) signal", "setting": "[2]", "result": "790.5 and 907 and 635 and 855 (2×) and 232 and 870 and 812.5 and 341 and 750"}, {"measurement": "NM_005736 (FlexMap ID LUA#1) signal", "setting": "[2]", "result": "308 and 336 and 319 and 351 and 89 and 329 and 319.5 and 138.5 and 309 and 279"}, {"measurement": "NM_006457 (FlexMap ID LUA#13) signal", "setting": "[2]", "result": "144 and 135 (2×) and 113 and 78 and 123 and 136 and 90 and 151.5 and 132"}, {"measurement": "NM_006773 (FlexMap ID LUA#47) signal", "setting": "[2]", "result": "213 (2×) and 257 and 139 and 56.5 and 216 and 219 and 79.5 and 235 and 174"}, {"measurement": "NM_006948 (FlexMap ID LUA#51) signal", "setting": "[2]", "result": "742 and 840.5 and 592.5 and 791.5 and 224 and 773.5 and 795 and 325 and 762 and 716.5"}, {"measurement": "NM_007331 (FlexMap ID LUA#50) signal", "setting": "[2]", "result": "85.5 and 97 and 70 and 81 and 42 and 96 and 87 and 53 and 91 and 80"}, {"measurement": "NM_013402 (FlexMap ID LUA#54) signal", "setting": "[2]", "result": "72 (2×) and 71 and 62 and 75 (2×) and 43 and 75.5 and 48.5 and 71.5"}, {"measurement": "NM_014288 (FlexMap ID LUA#48) signal", "setting": "[2]", "result": "64 and 62 and 55 and 61 and 45 and 60 (2×) and 56 and 41.5 and 59"}, {"measurement": "NM_014962 (FlexMap ID LUA#5) signal", "setting": "[2]", "result": "537 and 575.5 and 414.5 and 556 and 171.5 and 552.5 and 567 and 232 and 576.5 and 516.5"}, {"measurement": "NM_016061 (FlexMap ID LUA#9) signal", "setting": "[2]", "result": "362.5 and 422 and 297 and 401 and 128 and 385 and 382 and 173 and 357.5 and 357"}, {"measurement": "NM_017440 (FlexMap ID LUA#49) signal", "setting": "[2]", "result": "59 and 66 and 55 and 68 (2×) and 40 and 67 and 48.5 and 66.5 and 62"}, {"measurement": "NM_018217 (FlexMap ID LUA#3) signal", "setting": "[2]", "result": "747 and 886 and 659.5 and 824 and 225.5 and 823 and 800 and 343 and 785 and 727"}, {"measurement": "NM_032571 (FlexMap ID LUA#15) signal", "setting": "[2]", "result": "144 and 188 and 125 and 161 and 60 and 169 and 164.5 and 81 and 172.5 and 146"}, {"measurement": "NM_173823 (FlexMap ID LUA#6) signal", "setting": "[2]", "result": "591.5 and 718 and 482.5 and 654 and 186.5 and 675 and 646 and 291 and 604.5 and 573"}]}
